Reference: patent US8383643B2, “Spiro compounds useful as inhibitors of stearoyl-coenzyme A delta-9 desaturase” (Merck Canada Inc., priority 2009, dated 2013)

What follows are compounds tested against T1, human SCD1 (Homo sapiens, UniProt O00767) (assay: SCD enzyme activity assay, reconstituted human SCD1 desaturase system ([3H]-stearoyl-CoA conversion)). Settings: read-out: IC50 hSCD-1.
T1 construct: made in house; host or cells: baculovirus/Sf9
T1 sequence (O00767 1-359): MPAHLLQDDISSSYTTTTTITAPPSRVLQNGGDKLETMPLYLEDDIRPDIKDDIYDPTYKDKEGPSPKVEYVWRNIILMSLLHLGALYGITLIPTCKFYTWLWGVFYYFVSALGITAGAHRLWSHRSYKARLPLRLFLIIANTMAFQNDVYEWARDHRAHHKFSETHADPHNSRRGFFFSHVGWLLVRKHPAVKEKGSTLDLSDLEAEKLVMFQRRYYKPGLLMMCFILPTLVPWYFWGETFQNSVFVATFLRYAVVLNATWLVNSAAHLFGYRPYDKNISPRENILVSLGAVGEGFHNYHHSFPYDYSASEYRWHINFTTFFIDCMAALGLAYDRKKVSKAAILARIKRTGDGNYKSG
Type: biochemical
Description: The potency of compounds of formula I against the stearoyl-CoA desaturase was determined by measuring the conversion of radiolabeled stearoyl-CoA to oleoyl-CoA using rat liver microsome or human SCD1 following previously published procedures with some modifications (Joshi, et al., J. Lipid Res., 18: 32-36 (1977); Talamo, et al., Anal. Biochem, 29: 300-304 (1969)). Liver microsome was prepared from male Wistar or Sprague Dawley rats on a high carbohydrate diet for 3 days (LabDiet #5803, Purina). The livers were homogenized (1:10 w/v) in a buffer containing 250 mM sucrose, 1 mM EDTA, 5 mM DTT and 50 mM Tris-HCl (pH 7.5). After a 100,000×g centrifugation for […], the liver microsome pellet was suspended in a buffer containing 100 mM sodium phosphate, 20% glycerol, 2 mM DTT, and stored at −78° C. Human SCD1 desaturase system was reconstituted using human SCD1 from a baculovirus/Sf9 expression system, cytochrome B5 and cytochrome B5 reductase. Typically, test compound in 2 μL DMSO was incubated for […] at room temperature with 180 μL of the SCD enzyme in a buffer containing 100 mM Tris-HCl (pH 7.5), ATP (5 mM), Coenzyme-A (0.1 mM), Triton X-100 (0.5 mM) and NADH (2 mM). The reaction was initiated by the addition of 20 μL of [^3H]-stearoyl-CoA (final concentration=2 μM, radioactivity concentration=1 μCi/mL). After 10 min, the reaction mixture (80 μL) was mixed with a calcium chloride/charcoal aqueous suspension (100 μL charcoal (10% w/v) plus 25 μL CaCl2 (2N). After centrifugation to precipitate the radioactive fatty acid species, tritiated water released from 9,10-[^3H]-stearoyl-CoA by the SCD enzyme was quantified on a scintillation counter.

| Compound | IC50 [nM] |
| --- | --- |
| (5-{5-[4-(2-Chlorophenyl)-1′H-spiro[chromene-2,4′-piperidin]-1′-yl]-1,3,4-thiadiazol-2-yl}-2H-tetrazol-2-yl)acetic acid [Example 2] | 0.61 |
| (5-{5-[4-(2-Chlorophenyl)-1′H-spiro[chromene-2,4′-piperidin]-1′-yl]-1,3,4-thiadiazol-2-yl}-2H-tetrazol-2-yl)acetic acid [Example 4] | 2 |
| 2-(5-(2-(4-(4-Fluorophenyl)spiro[chromene-2,4′-piperidine]-1′-yl)thiazol-5-yl)-2H-tetrazol-2-yl)acetic acid [Example 6] | 1.3 |
| (5-{2-[4-(2-Chlorophenyl)-1′H-spiro[chromene-2,4′-piperidin]-1′-yl]-1,3-thiazol-5-yl}-2H-tetrazol-2-yl)acetic acid [Example 1] | 0.92 |
| (5-{2-[4-(2,4-Dichlorophenyl)-1′H-spiro[chromene-2,4′-piperidin]-1′-yl]-1,3-thiazol-5-yl}-2H-tetrazol-2-yl)acetic acid [Example 5] | 1.1 |
| O=C(O)Cn1nnc(-c2cnc(N3CCC4(C=C(c5ccc(OC(F)(F)F)cc5)c5ccccc5O4)CC3)s2)n1 [Example 3, [5-(2-{-4-[4-(Trifluoromethoxy)phenyl]-1′H-spiro[chromene-2,4′-piperidin]-1′-yl}-1,3-thiazol-5-yl)-2H-tetrazol-2-yl]acetic acid] | 1.1 |
| 2-(5-(5-(4-(4-Fluorophenyl)spiro[chromene-2,4′-piperidine]-1′-yl)-1,3,4-thiadiazol-2-yl)-2H-tetrazol-2-yl)acetic acid [Example 7] | 0.97 |
